Reference: US6465460B1, “Compositions and methods for prevention and treatment of protozoal disease” (New Ace Research Company, priority 1998, dated 2002)

Assays:
[1] = pH stability of sodium salt of diclazuril (dropwise 1N HCl until cloudy); assay type: physicochemical
Procedure: (§1) The manufacturer of diclazuril, JANSEEN Research Foundation, listed the pKa of diclazuril to be 5.92 in its physico-chemical characteristics of diclazuril. It can be expected that at pH's above the pKa of the compound (i.e. pH>6), aqueous solution of diclazuril would stay in solution. Preliminary studies were conducted to determine the pH at which sodium salt would precipitate.
(§2) Sodium salt of diclazuril was dissolved in water. […] The pH of the aqueous solution was 12.4. To this solution, 1N HCl was added dropwise while stirring and the pH at which the solution began to turn cloudy was recorded.
This will not cause a problem as there are many drugs on the market that are formulated at higher pHs for exactly the same reason.

Babesia equi = details: horses treated for piroplasmosis; cited from earlier work
in vivo = assay: in vivo; parameters: species or system horse
Procedure: OWENS, (about 1,000 lbs.) received 750 mg of diclazuril powder dissolved in 30 ml of DMSO, intravenously, twice on day one, at zero and zero plus one hours for a total dose of 1,500 mg. Blood samples were drawn at the indicated time points immediately before the next dosing and the solid circles [drawing 4] in FIG. 1 represent plasma concentrations of diclazuril after these administrations. Plasma concentrations of dicalzuril in ng/ml are represented on the vertical axis against time in days on the horizontal axis. […] Concentrations at 72 hr and 96 hr were not included in calculation following IV administration. Area Under the Curve (AUC from 0 to ∞): Intercept-Slope Method [formula] […] Cl=55.26 ml/min. […] ClH=QH. EH EH is lower than 0.3 so diclazuril is found to have low hepatic extraction ratio.

[2] = Repeated daily IV administration of diclazuril in DMSO to the horse DEEP POWDER: plasma levels; assay type: in vivo; details: horse 1160 lbs, 0.5 mg/lb (580 mg) in DMSO IV once a day for eight days, sampled 24 hours after each dose, read-out: final steady state plasma concentration of diclazuril
Procedure: The horse, DEEP POWDER, 1160 lbs., in Table 2 above was administered diclazuril at a dose of 0.5 mg/lb. (580 mg) in DMSO IV once a day for eight days. Plasma levels of diclazuril at 24 hours after each dose administration and just before the next day's dosing are represented by the solid circles [drawing 6]
in the above Table 2. Note bow the dose of […] yields a stepwise increasing plasma concentrations of diclazuril, yielding a final steady state plasma concentration of diclazuril of about 10,000 ng/ml.

[3] = assay type: physicochemical
Procedure: Diclazuril has a very low solubility in water (<1×10^−7 at pH 6.5) and can in fact be considered as practically-insoluble in water. A presently preferred plasma drug concentration of about 8 μg/ml for about 25-30 days is needed for the effective treatment of equine protozoan myeloencephalitis (EPM). The oral bioavailability of diclazuril is very low. Thus, a parenteral formulation is desired.
as §2

pKa of diclazuril = assay type: physicochemical; details: aqueous solution of the sodium salt of diclazuril; inferred from pH stability study of the sodium salt; read-out: pKa inferred from precipitation pH
Procedure: as §1, §2

[4] = listed by JANSEEN Research Foundation; cited from earlier work

## N#CC(c1ccc(Cl)cc1)c1c(Cl)cc(-n2ncc(=O)[n-]c2=O)cc1Cl.[Na+] (stereo not drawn) [sodium salt of diclazuril]
[1]; 1N HCl added dropwise while stirring, preliminary study
  pH at which the solution began to turn cloudy: 10.5
[1]; sodium salt dissolved in water
  pH of the aqueous solution: 12.4

## O=C(Nc1cccc(C2=NCCN2)c1)Nc1cccc(C2=NCCN2)c1 [imidocarb dipropionate]
Babesia equi
  adverse side effects of treatment: salivation, restlessness, colic and gastrointestinal tract hypermotility

## N#CC(c1ccc(Cl)cc1)c1c(Cl)cc(-n2ncc(=O)[nH]c2=O)cc1Cl (stereo not drawn) [diclazuril]
In vivo
  level of diclazuril in urine samples: Not detectable
In vivo; horse
  EH (hepatic extraction ratio): lower than 0.3
In vivo; horse, iv
  AUC: 452 µg·h/mL
  clearance: 55.3 mL/min
  half-life: ~48 h
[2]
  concentration at 24 h: ~10000 ng/mL
[3]
  solubility in water (in words): completely insoluble in water
pKa of diclazuril
  pKa: ~10.5
[4]
  pKa listed by manufacturer: 5.92
